{"source": "paper PMC10817943", "about": "(Nature Communications, 2024)", "key": {"[1]": {"system": "S. aureus Newman", "assay": "microbe, parasite or virus in culture", "format": "cell-based", "conditions": "Staphylococcus aureus, read-out: MIC S. aureus Newman"}, "[2]": {"system": "M. smegmatis (Msmeg) strain mc^2155", "assay": "microbe, parasite or virus in culture", "format": "cell-based", "conditions": "Mycolicibacterium smegmatis, MC^2155, read-out: MIC M. smegmatis mc^2155"}, "[3]": {"system": "B. subtilis DSM 10", "assay": "microbe, parasite or virus in culture", "format": "cell-based", "conditions": "Bacillus subtilis, DSM10, read-out: MIC B. subtilis DSM 10"}, "[4]": {"system": "M. smegmatis mc^2155 GM^R", "assay": "microbe, parasite or virus in culture", "format": "cell-based", "conditions": "Mycolicibacterium smegmatis, MC^2155, read-out: MIC M. smegmatis mc^2155 GM^R"}, "[5]": {"system": "E. coli BW25113", "assay": "microbe, parasite or virus in culture", "format": "cell-based", "conditions": "Escherichia coli, BW25113, read-out: MIC E. coli BW25113"}, "[6]": {"system": "M. tuberculosis (Mtb) strain H37Ra", "assay": "microbe, parasite or virus in culture", "format": "cell-based", "conditions": "Mycobacterium tuberculosis, read-out: MIC Mtb H37Ra"}, "[7]": {"system": "CHO-K1 cells", "assay": "cells", "format": "cell-based, Chinese hamster (Cricetulus griseus)", "conditions": "Cricetulus griseus, CHO-K1, 120 h, read-out: IC50 CHO-K1"}, "[8]": {"system": "M. marinum (Mm) strain M (ATCC BAA-535)", "assay": "microbe, parasite or virus in culture", "format": "cell-based", "conditions": "Mycobacterium marinum, ATCCBAA535, read-out: MIC M. marinum strain M"}, "[9]": {"system": "C. freundii DSM 30039", "assay": "microbe, parasite or virus in culture", "format": "cell-based", "conditions": "Citrobacter freundii, DSM30039, read-out: MIC C. freundii DSM 30039"}, "[10]": {"biological_target": "M. smegmatis DnaN (msDnaN) (Mycolicibacterium smegmatis, UniProt A0QND6)", "assay": "biochemical", "format": "binding", "conditions": "for Response (Average): MST source data, runs #1-#3, listed as MP B"}, "[11]": {"system": "A. baumannii DSM 30008", "assay": "microbe, parasite or virus in culture", "format": "cell-based", "conditions": "Acinetobacter baumannii, DSM30008, read-out: MIC A. baumannii DSM 30008"}, "[12]": {"system": "M. tuberculosis (Mtb) strain H37Rv", "assay": "microbe, parasite or virus in culture", "format": "cell-based, Mycobacterium tuberculosis", "conditions": "Mycobacterium tuberculosis, H37RV"}, "[13]": {"biological_target": "T1, M. smegmatis DnaN (DNA polymerase III sliding clamp) (M. smegmatis mc^2155, UniProt A0QND6 1-397, labeled using Monolith Series Protein Labeling Kit BLUE-NHS)", "T1 construct": "also called msDnaN; DnaN from M. smegmatis mc^2155", "T1 sequence (looked up)": "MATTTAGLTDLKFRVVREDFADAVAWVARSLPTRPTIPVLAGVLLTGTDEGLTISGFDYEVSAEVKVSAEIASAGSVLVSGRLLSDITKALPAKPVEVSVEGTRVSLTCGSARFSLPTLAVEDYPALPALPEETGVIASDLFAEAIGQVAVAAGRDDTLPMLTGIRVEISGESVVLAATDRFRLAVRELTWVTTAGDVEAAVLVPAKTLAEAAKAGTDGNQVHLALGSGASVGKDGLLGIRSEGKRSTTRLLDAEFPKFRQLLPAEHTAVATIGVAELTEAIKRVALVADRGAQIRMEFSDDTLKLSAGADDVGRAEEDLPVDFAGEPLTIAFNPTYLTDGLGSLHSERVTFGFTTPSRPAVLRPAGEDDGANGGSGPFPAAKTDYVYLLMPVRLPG", "assay": "MST; msDnaN labeled (BLUE-NHS) at 50 nM; compounds titrated in 16 serial dilution steps, triplicates; 20 mM Tris, 150 mM NaCl, 0.05% Tween-20; Monolith NT-115", "conditions": "both partners purified"}}, "note": "Where “and” joins values, the source holds several entries; their conditions need not be identical. Identical values can stand only once. Like-named read-outs stand apart in the source and are kept apart here. Numbered stars: 1 amine (or outer) side, 2 acyl side, 3 side chain; on linkers, the order of the positions; unused ones are H or OH. Bridge positions count the residues as written; N and C are the ends. Square brackets hold non-standard residues; d marks the D form. Ends that are not written are not given here. Peptide text beside a SMILES is read from it. * marks the point of attachment. ξ: configuration not given here. X2 = CCCC1CC(C(=O)[*:2])N([*:1])C1; Butanoyl(2-oxo) = CCC(=O)C(=O)*; NMeAhp(2) = CCCCC[CH](NC)C(=O)O; ξPro(4ξ-Me) = CC1CNC(C(=O)O)C1; NMeT = CN[CH](C(=O)O)[CH](C)O; NMeL = CN[CH](CC(C)C)C(=O)O; hLeu = CC(C)CC[CH](N)C(=O)O; NMeV = CN[CH](C(=O)O)C(C)C", "data": [{"molecule": "CCC(=O)C(=O)N(C)C(C(=O)N1CC(C)CC1C(=O)N(C)C1C(=O)NC(CC(C)C)C(=O)N2CC(C)CC2C(=O)NC(CCC(C)C)C(=O)N(C)C(C(C)C)C(=O)N2CCCC2C(=O)N(C)C(CC(C)C)C(=O)NCC(=O)OC1C)C(C)C", "note": "(centres unmarked) [Mycoplanecin B]", "values": [{"measurement": "MIC", "setting": "[1]", "value": "> 64", "unit": "µg/mL"}, {"measurement": "MIC", "setting": "[2]", "value": 0.5, "unit": "µg/mL"}, {"measurement": "MIC", "setting": "[3]", "value": "> 64", "unit": "µg/mL"}, {"measurement": "MIC", "setting": "[4]", "value": 8, "unit": "µg/mL"}, {"measurement": "MIC", "setting": "[5]", "value": "> 64", "unit": "µg/mL"}, {"measurement": "MIC", "setting": "[6]", "value": 0.1, "unit": "µg/mL"}, {"measurement": "IC50", "setting": "[7]", "value": "> 37", "unit": "µg/mL"}, {"measurement": "MIC", "setting": "[8]", "value": 2, "unit": "µg/mL"}, {"measurement": "MIC", "setting": "[9]", "value": "> 64", "unit": "µg/mL"}, {"measurement": "Kd", "setting": "[10]", "value": "24.4 ± 11.9", "unit": "nM"}, {"measurement": "Response (Average)", "setting": "[10]; Dose 1.22E-08 (unit not given)", "value": "897.348 and 900.943 and 911.516"}, {"measurement": "Response (Average)", "setting": "[10]; Dose 1.25E-05 (unit not given)", "value": "906.572 and 909.169 and 909.706"}, {"measurement": "Response (Average)", "setting": "[10]; Dose 1.53E-09 (unit not given)", "value": "896.843 and 900.134 and 899.613"}, {"measurement": "Response (Average)", "setting": "[10]; Dose 1.56E-06 (unit not given)", "value": "907.358 and 910.005 and 911.362"}, {"measurement": "Response (Average)", "setting": "[10]; Dose 1.95E-07 (unit not given)", "value": "905.084 and 913.604 and 911.242"}, {"measurement": "Response (Average)", "setting": "[10]; Dose 2.44E-08 (unit not given)", "value": "897.582 and 904.128 and 903.123"}, {"measurement": "Response (Average)", "setting": "[10]; Dose 2.50E-05 (unit not given)", "value": "906.786 and 911.734 and 910.009"}, {"measurement": "Response (Average)", "setting": "[10]; Dose 3.05E-09 (unit not given)", "value": "897.958 and 898.601 and 900.671"}, {"measurement": "Response (Average)", "setting": "[10]; Dose 3.13E-06 (unit not given)", "value": "907.585 and 910.886 and 909.908"}, {"measurement": "Response (Average)", "setting": "[10]; Dose 3.91E-07 (unit not given)", "value": "908.074 and 910.248 and 909.115"}, {"measurement": "Response (Average)", "setting": "[10]; Dose 4.88E-08 (unit not given)", "value": "897.616 and 904.939 and 909.25"}, {"measurement": "Response (Average)", "setting": "[10]; Dose 5.00E-05 (unit not given)", "value": "906.528 and 909.788 and 910.069"}, {"measurement": "Response (Average)", "setting": "[10]; Dose 6.10E-09 (unit not given)", "value": "894.937 and 899.128 and 901.665"}, {"measurement": "Response (Average)", "setting": "[10]; Dose 6.25E-06 (unit not given)", "value": "905.496 and 910.338 and 909.682"}, {"measurement": "Response (Average)", "setting": "[10]; Dose 7.81E-07 (unit not given)", "value": "907.246 and 909.231 and 910.996"}, {"measurement": "Response (Average)", "setting": "[10]; Dose 9.77E-08 (unit not given)", "value": "902.534 and 911.539 and 911.215"}, {"measurement": "MIC", "setting": "[11]", "value": "> 64", "unit": "µg/mL"}, {"measurement": "MIC", "setting": "[12]; read-out: MIC Mtb H37Rv", "value": 0.43, "unit": "µg/mL"}]}, {"molecule": "CCCC1CC(C(=O)N(C)C2C(=O)NC(CC(C)C)C(=O)N3CC(C)CC3C(=O)NC(CCC(C)C)C(=O)N(C)C(C(C)C)C(=O)N3CCCC3C(=O)N(C)C(CC(C)C)C(=O)NCC(=O)OC2C)N(C(=O)C(C(C)C)N(C)C(=O)C(=O)CC)C1", "note": "(centres unmarked) [Mycoplanecin D] ({Butanoyl(2-oxo)}-[NMeV][X2][NMeT]L[ξPro(4ξ-Me)][hLeu][NMeV]P[NMeL]G; ester 3-C; configuration not given here)", "values": [{"measurement": "MIC", "setting": "[1]", "value": "> 64", "unit": "µg/mL"}, {"measurement": "MIC", "setting": "[2]", "value": 0.25, "unit": "µg/mL"}, {"measurement": "MIC", "setting": "[3]", "value": "> 64", "unit": "µg/mL"}, {"measurement": "MIC", "setting": "[4]", "value": 8, "unit": "µg/mL"}, {"measurement": "MIC", "setting": "[5]", "value": "> 64", "unit": "µg/mL"}, {"measurement": "MIC", "setting": "[6]", "value": 0.05, "unit": "µg/mL"}, {"measurement": "IC50", "setting": "[7]", "value": "> 37", "unit": "µg/mL"}, {"measurement": "MIC", "setting": "[8]", "value": 1, "unit": "µg/mL"}, {"measurement": "MIC", "setting": "[9]", "value": "> 64", "unit": "µg/mL"}, {"measurement": "Kd", "setting": "[10]", "value": "134 ± 69.3", "unit": "nM"}, {"measurement": "MIC", "setting": "[11]", "value": "> 64", "unit": "µg/mL"}, {"measurement": "MIC", "setting": "[12]; read-out: MIC Mtb H37Rv", "value": 0.17, "unit": "µg/mL"}]}, {"molecule": "CCCCCC1C(=O)NCC(=O)OC(C)C(N(C)C(=O)C2CC(CCC)CN2C(=O)C(C(C)C)N(C)C(=O)C(=O)CC)C(=O)NC(CC(C)C)C(=O)N2CC(C)CC2C(=O)NC(CCC(C)C)C(=O)N(C)C(C(C)C)C(=O)N2CCCC2C(=O)N1C", "note": "(centres unmarked) [Mycoplanecin E] ({Butanoyl(2-oxo)}-[NMeV][X2][NMeT]L[ξPro(4ξ-Me)][hLeu][NMeV]P[NMeAhp(2)]G; ester 3-C; configuration not given here)", "values": [{"measurement": "MIC", "setting": "[1]", "value": "> 64", "unit": "µg/mL"}, {"measurement": "MIC", "setting": "[2]", "value": 0.125, "unit": "µg/mL"}, {"measurement": "MIC", "setting": "[3]", "value": "> 64", "unit": "µg/mL"}, {"measurement": "MIC", "setting": "[5]", "value": "> 64", "unit": "µg/mL"}, {"measurement": "MIC", "setting": "[6]", "value": 0.03, "unit": "µg/mL"}, {"measurement": "IC50", "setting": "[7]", "value": "> 37", "unit": "µg/mL"}, {"measurement": "MIC", "setting": "[8]", "value": 0.5, "unit": "µg/mL"}, {"measurement": "MIC", "setting": "[9]", "value": "> 64", "unit": "µg/mL"}, {"measurement": "Kd", "setting": "[10]", "value": "64.4 ± 33.2", "unit": "nM"}, {"measurement": "MIC", "setting": "[11]", "value": "> 64", "unit": "µg/mL"}, {"measurement": "MIC", "setting": "[12]; read-out: MIC Mtb H37Rv", "value": 0.083, "unit": "µg/mL"}, {"measurement": "MIC", "setting": "[12]; read-out: minimum inhibition concentration against Mycobacterium tuberculosis", "value": 0.083, "unit": "µg/mL"}]}, {"molecule": "VPTLPLVPLG (also: macrocycle, 4-methylproline twice, positions not placed)", "note": "[griselimycin]", "values": [{"measurement": "Kd", "setting": "[13]", "value": 6.5, "unit": "nM"}]}]}
